Results from patent US10633379B2, “Bromodomain inhibitors” (AbbVie Inc., priority 2016, dated 2020).

Key:
[1] = molecular target: BRD4 (BDII_E352-M457) (Homo sapiens (Human), UniProt O60885); assay: TR-FRET bromodomain binding assay, BRD4 BDII; conditions: mean Ki, calculated from IC50, probe Kd and probe concentration
Method: (§1) A time-resolved fluorescence resonance energy transfer (TR-FRET) assay was used to determine the affinities of compounds of the Examples listed in Table 1 for each bromodomain of BRD4. His-tagged first (BDI: amino acids K57-E168) and second (BDII: amino acids E352-M457) bromodomains of BRD4 were expressed and purified. An Alexa647-labeled BET-inhibitor was used as the fluorescent probe in the assay.
(§2) Compound dilution series were prepared in DMSO via an approximately 3-fold serial dilution. Compound dilutions were added directly into white, low-volume assay plates (Perkin Elmer Proxiplate 384 Plus#6008280) using a Labcyte Echo in conjunction with Labcyte Access and Thermo Multidrop CombinL robotics. Compounds were then suspended in eight microliters (μL) of assay buffer (20 mM Sodium Phosphate, pH 6.0, 50 mM NaCl, 1 mM Ethylenediaminetetraacetic acid disodium salt dihydrate, 0.01% Triton X-100, 1 mM DL-Dithiothreitol) containing His-tagged bromodomain, Europium-conjugated anti-His antibody (Invitrogen PV5596) and Alexa-647-conjugated probe.
(§3) The final concentration of 1× assay mixture contained 2% DMSO, 12 nM His tagged BRD4 (BDI_K57-E168) and 100 nM probe or 4 nM His tagged BRD4 (BDII_E352-M457) and 30 nM probe, and 1 nM Europium-conjugated anti-His-tag antibody, and compound concentrations in the range of: 49.02 μM-0.61 nM or 0.98 μM-0.15 nM.
(§4) After a one-hour equilibration at room temperature, TR-FRET ratios were determined using an Envision multilabel plate reader (Ex 340, Em 495/520).
(§5) TR-FRET data were normalized to the means of 24 no-compound controls (“high”) and 8 controls containing 1 μM un-labeled probe (“low”). Percent inhibition was plotted as a function of compound concentration and the data were fit with the 4 parameter logistic equation to obtain IC50s. Inhibition constants (Ki) were calculated from the IC50s, probe Kd and probe concentration.

[2] = molecular target: BRD4 (BDI_K57-E168) (Homo sapiens (Human), UniProt O60885); assay: TR-FRET bromodomain binding assay, BRD4 BDI; conditions: mean Ki, calculated from IC50, probe Kd and probe concentration
Method: as §1, §2, §3, §4, §5

Row | SMILES | Ki [1] | Ki [2]
1 | CCNC(=O)c1cc2c(-c3cc([C@](C)(O)CO)ccc3Oc3c(C)cccc3C)cn(C)c(=O)c2[nH]1 (single isomer, unassigned) [Example 69, 4-{5-[(25)-1,2-dihydroxypropan-2-yl]-2-(2,6-dimethylphenoxy)phenyl}-N-ethyl-6-methyl-7-oxo-6,7-dihydro-1H-pyrrolo[2,3-c]pyridine-2-carboxamide] | 2.3 nM | 499 nM
2 | CCNC(=O)c1cc2c(-c3cc(C(O)(CC)CC)cnc3Oc3c(C)cccc3C)cn(C)c(=O)c2[nH]1 [Example 2, 4-[2-(2,6-dimethylphenoxy)-5-(3-hydroxypentan-3-yl)pyridin-3-yl]-N-ethyl-6-methyl-7-oxo-6,7-dihydro-1H-pyrrolo[2,3-c]pyridine-2-carboxamide] | 3 nM | 220 nM
3 | CCNC(=O)c1cc2c(-c3cc(C(C)(C)O)ccc3Oc3c(C)cccc3C)cn(C)c(=O)c2[nH]1 [Example 3, 4-[2-(2,6-dimethylphenoxy)-5-(2-hydroxypropan-2-yl)phenyl]-N-ethyl-6-methyl-7-oxo-6,7-dihydro-1H-pyrrolo[2,3-c]pyridine-2-carboxamide] | 1.1 nM | 404 nM
4 | CCNC(=O)c1cc2c(-c3cc(C4(O)CC=CC4)cnc3Oc3c(C)cccc3C)cn(C)c(=O)c2[nH]1 [Example 4, 4-[2-(2,6-dimethylphenoxy)-5-(1-hydroxycyclopent-3-en-1-yl)pyridin-3-yl]-N-ethyl-6-methyl-7-oxo-6,7-dihydro-1H-pyrrolo[2,3-c]pyridine-2-carboxamide] | 3.1 nM | 215 nM
5 | CCNC(=O)c1cc2c(-c3cc(C4(O)CCCC4)cnc3Oc3c(C)cccc3C)cn(C)c(=O)c2[nH]1 [Example 6, 4-[2-(2,6-dimethylphenoxy)-5-(1-hydroxycyclopentyl)pyridin-3-yl]-N-ethyl-6-methyl-7-oxo-6,7-dihydro-1H-pyrrolo[2,3-c]pyridine-2-carboxamide] | 2.3 nM | 273 nM
6 | CCNC(=O)c1cc2c(-c3cc(C(O)(CC)c4ccccc4)cnc3Oc3c(C)cccc3C)cn(C)c(=O)c2[nH]1 (centres unmarked) [Example 7, 4-[2-(2,6-dimethylphenoxy)-5-(1-hydroxy-1-phenylpropyl)pyridin-3-yl]-N-ethyl-6-methyl-7-oxo-6,7-dihydro-1H-pyrrolo[2,3-c]pyridine-2-carboxamide] | 4.1 nM | 632 nM
7 | CCNC(=O)c1cc2c(-c3cc(C(C)(O)CC)cnc3Oc3c(C)cccc3C)cn(C)c(=O)c2[nH]1 (centres unmarked) [Example 8, 4-[2-(2,6-dimethylphenoxy)-5-(2-hydroxybutan-2-yl)pyridin-3-yl]-N-ethyl-6-methyl-7-oxo-6,7-dihydro-1H-pyrrolo[2,3-c]pyridine-2-carboxamide] | 2.3 nM | 359 nM
8 | CCNC(=O)c1cc2c(-c3cc(C(O)(CC)CCc4ccccc4)cnc3Oc3c(C)cccc3C)cn(C)c(=O)c2[nH]1 (centres unmarked) [Example 14, 4-[2-(2,6-dimethylphenoxy)-5-(3-hydroxy-1-phenylpentan-3-yl)pyridin-3-yl]-N-ethyl-6-methyl-7-oxo-6,7-dihydro-1H-pyrrolo[2,3-c]pyridine-2-carboxamide] | 2.3 nM | 965 nM
9 | CCNC(=O)c1cc2c(-c3cc(C(O)(CC)Cc4ccc(F)cc4)cnc3Oc3c(C)cccc3C)cn(C)c(=O)c2[nH]1 (centres unmarked) [Example 15, 4-{2-(2,6-dimethylphenoxy)-5-[1-(4-fluorophenyl)-2-hydroxybutan-2-yl]pyridin-3-yl}-N-ethyl-6-methyl-7-oxo-6,7-dihydro-1H-pyrrolo[2,3-c]pyridine-2-carboxamide] | 26.5 nM | 1840 nM

The remaining molecules from weak to strong by Ki [1], led by results:

Row | Ki [1] | Ki [2] | SMILES
10 | 15.5 nM | 69.9 nM | Cn1cc(-c2cc(CO)ccc2Oc2ccccc2)c2cc[nH]c2c1=O [Compound Z, 4-[5-(hydroxymethyl)-2-phenoxyphenyl]-6-methyl-1,6-dihydro-7H-pyrrolo[2,3-c]pyridin-7-one, reference compound]
11 | 5.4 nM | 715 nM | CCNC(=O)c1cc2c(-c3cc(C(O)(CC)CC(C)C)cnc3Oc3c(C)cccc3C)cn(C)c(=O)c2[nH]1 (centres unmarked) [Example 10, 4-[2-(2,6-dimethylphenoxy)-5-(3-hydroxy-5-methylhexan-3-yl)pyridin-3-yl]-N-ethyl-6-methyl-7-oxo-6,7-dihydro-1H-pyrrolo[2,3-c]pyridine-2-carboxamide]
12 | 3.8 nM | 601 nM | CCNC(=O)c1cc2c(-c3cc(C(O)(CC)c4ccc(F)cc4)cnc3Oc3c(C)cccc3C)cn(C)c(=O)c2[nH]1 (centres unmarked) [Example 9, 4-{2-(2,6-dimethylphenoxy)-5-[1-(4-fluorophenyl)-1-hydroxypropyl]pyridin-3-yl}-N-ethyl-6-methyl-7-oxo-6,7-dihydro-1H-pyrrolo[2,3-c]pyridine-2-carboxamide]
13 | 2.6 nM | 170 nM | CCNC(=O)c1cc2c(-c3cc(C(O)(CC)C4CCCC4)cnc3Oc3c(C)cccc3C)cn(C)c(=O)c2[nH]1 (centres unmarked) [Example 11, 4-[5-(1-cyclopentyl-1-hydroxypropyl)-2-(2,6-dimethylphenoxy)pyridin-3-yl]-N-ethyl-6-methyl-7-oxo-6,7-dihydro-1H-pyrrolo[2,3-c]pyridine-2-carboxamide]
14 | 2.3 nM | 462 nM | CCNC(=O)c1cc2c(-c3cc(C(C)(C)O)cnc3Oc3c(C)cccc3C)cn(C)c(=O)c2[nH]1 [Example 1, 4-[2-(2,6-dimethylphenoxy)-5-(2-hydroxypropan-2-yl)pyridin-3-yl]-N-ethyl-6-methyl-7-oxo-6,7-dihydro-1H-pyrrolo[2,3-c]pyridine-2-carboxamide]
15 | 2.2 nM | 341 nM | CCNC(=O)c1cc2c(-c3cc([C@@](C)(O)CO)ccc3Oc3c(C)cccc3C)cn(C)c(=O)c2[nH]1 (single isomer, unassigned) [Example 68]
16 | 2 nM | 114 nM | CCNC(=O)c1cc2c(-c3cc(C(O)(CC)C(C)CC)cnc3Oc3c(C)cccc3C)cn(C)c(=O)c2[nH]1 (centres unmarked) [Example 13, 4-[2-(2,6-dimethylphenoxy)-5-(3-hydroxy-4-methylhexan-3-yl)pyridin-3-yl]-N-ethyl-6-methyl-7-oxo-6,7-dihydro-1H-pyrrolo[2,3-c]pyridine-2-carboxamide]
17 | 1.9 nM | 97 nM | CCNC(=O)c1cc2c(-c3cc(C(O)(CC)C4CC4)cnc3Oc3c(C)cccc3C)cn(C)c(=O)c2[nH]1 (centres unmarked) [Example 12, 4-[5-(1-cyclopropyl-1-hydroxypropyl)-2-(2,6-dimethylphenoxy)pyridin-3-yl]-N-ethyl-6-methyl-7-oxo-6,7-dihydro-1H-pyrrolo[2,3-c]pyridine-2-carboxamide]
18 | 1.6 nM | 187 nM | CCNC(=O)c1cc2c(-c3cc(C4(O)CC=CC4)ccc3Oc3c(C)cccc3C)cn(C)c(=O)c2[nH]1 [Example 5, 4-[2-(2,6-dimethylphenoxy)-5-(1-hydroxycyclopent-3-en-1-yl)phenyl]-N-ethyl-6-methyl-7-oxo-6,7-dihydro-1H-pyrrolo[2,3-c]pyridine-2-carboxamide]
19 | 1.32 nM | 21.6 nM | CCNC(=O)c1cc2c(-c3cc(S(C)(=O)=O)ccc3Oc3ccc(F)cc3F)cn(C)c(=O)c2[nH]1 [Compound Y, 4-[2-(2,4-difluorophenoxy)-5-(methylsulfonyl)phenyl]-N-ethyl-6-methyl-7-oxo-6,7-dihydro-1H-pyrrolo[2,3-c]pyridine-2-carboxamide, reference compound]
